In PubChem BioAssay (NCI):
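48-hour exposure; five concentrations; linearly interpolated endpoints. Abbreviation: GI50, concentration required for 50% inhibition of growth. Definition used: TGI = concentration required for complete inhibition of growth.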

Key:
Assay in all cases: DTP human tumour cell line panel, 48 h
[1] = test system: 786-0 renal
[2] = test system: A549 NSCLC
[3] = test system: ACHN renal
[4] = test system: BT-549 breast
[5] = test system: CAKI-1 renal
[6] = test system: CCRF-CEM leukemia
[7] = test system: COLO 205 colon
[8] = test system: DU-145 prostate
[9] = test system: EKVX NSCLC
[10] = test system: HCC-2998 colon
[11] = test system: HCT-116 colon
[12] = test system: HCT-15 colon
[13] = test system: HL-60(TB) leukemia
[14] = test system: HOP-62 NSCLC
[15] = test system: HOP-92 NSCLC
[16] = test system: HS 578T breast
[17] = test system: HT29 colon
[18] = test system: IGROV1 ovarian
[19] = test system: K-562 leukemia
[20] = test system: KM12 colon
[21] = test system: LOX IMVI melanoma
[22] = test system: M14 melanoma
[23] = test system: MALME-3M melanoma
[24] = test system: MCF7 breast
[25] = test system: MDA-MB-231 breast
[26] = test system: MDA-MB-435
[27] = test system: MOLT-4 leukemia
[28] = test system: NCI-H226 lung
[29] = test system: NCI-H23 lung

For `CC(=O)OCc1cc[c]([Hg][Cl])o1`, the GI50 [1] was 3.88 µM, the TGI [1] was 13.2 µM and the GI50 [2] was 21.8 µM. It also gave a TGI [2] of 43.2 µM, a GI50 [3] of 1.81 µM and a TGI [3] of 3.44 µM. The GI50 [4] was 6.43 µM, the TGI [4] was 19.3 µM and the GI50 [5] was 10.4 µM. For the same compound, the TGI [5] was 23.5 µM, the GI50 [6] was 2.08 µM and the TGI [6] was 8.85 µM. It also gave a GI50 [7] of 1.63 µM, a TGI [7] of 3.29 µM and a GI50 [8] of 13.6 µM. For the same compound, the TGI [8] was 26.4 µM, the GI50 [9] was 12.4 µM and the TGI [9] was 28.2 µM. It also gave a GI50 [10] of 15.4 µM, a TGI [10] of 29.2 µM and a GI50 [11] of 10.1 µM. For the same compound, the TGI [11] was 24.3 µM, the GI50 [12] was 1.62 µM and the TGI [12] was 3.66 µM. The GI50 [13] was 2.46 µM, the TGI [13] was 6.28 µM and the GI50 [14] was 13.8 µM. It also gave a TGI [14] of 28.6 µM, a GI50 [15] of 2.51 µM and a TGI [15] of 6.36 µM. For the same compound, the GI50 [16] was 9.99 µM, the TGI [16] was 65.6 µM and the GI50 [17] was 5.61 µM. The TGI [17] was 26.3 µM, the GI50 [18] was 3.14 µM and the TGI [18] was 10.4 µM. It also gave a GI50 [19] of 0.991 µM, a TGI [19] of 10.3 µM and a GI50 [20] of 16.8 µM. For the same compound, the TGI [20] was 42.2 µM, the GI50 [21] was 1.96 µM and the TGI [21] was 4.96 µM. The GI50 [22] was 3.11 µM, the TGI [22] was 13 µM and the GI50 [23] was 1.6 µM. The TGI [23] was 3.27 µM, the GI50 [24] was 0.994 µM and the TGI [24] was 18.3 µM. The GI50 [25] was 2.59 µM, the TGI [25] was 7.81 µM and the GI50 [26] was 3.54 µM. For the same compound, the TGI [26] was 15.5 µM, the GI50 [27] was 2.07 µM and the TGI [27] was 8.46 µM. For the same compound, the GI50 [28] was 19.4 µM, the TGI [28] was 45.5 µM and the GI50 [29] was 12.1 µM.
